In one assay the target is Apolipoprotein L1 (Homo sapiens, UniProt O14791). Put plainly: Inhibition of APOL1 G1 variant in human HEK293-T-REx cells measured by Thallium assay. Format: cell-based.
Assay [1] concerns Trypanosoma brucei brucei. Put plainly: Antitrypanosomal activity against Trypanosoma brucei brucei assessed as trypanosome lysis using recombinant APOL1 protein G1 variant and measured by Alamar blue based fluoresence assay. Format: functional, organism-based.

Turning to `O=C(NCC1(O)COC1)[C@H]1C[C@H](c2c(-c3ccc(F)cc3)[nH]c3c(F)cc(F)cc32)C1`, the IC50 on Apolipoprotein L1 turned out to be 0.25 nM; in assay [1] it was 250 nM.
As for `CC(O)CN(C)C(=O)[C@H]1C[C@H](c2c(-c3ccc(F)cc3)[nH]c3c(F)cc(F)cc32)C1` (stereo partly specified), the values for the IC50 (against Apolipoprotein L1; in assay [1]) were > 1000 nM and 250 nM, respectively.
Regarding `CN1CCC(NC(=O)[C@H]2C[C@H](c3c(-c4ccc(F)cc4)[nH]c4c(F)cc(F)cc43)C2)C1=O` (stereo partly specified), the IC50 against Apolipoprotein L1 is < 250 nM; in assay [1], 250 nM.
Consider `NC(=O)C(CO)NC(=O)[C@H]1C[C@H](c2c(-c3ccc(F)cc3)[nH]c3c(F)cc(F)cc32)C1` (stereo partly specified), for which the IC50 (against Apolipoprotein L1; in assay [1]) was < 250 nM in each case.
Regarding `O=C(NCC1(O)CCCCC1)[C@H]1C[C@H](c2c(-c3ccc(F)cc3)[nH]c3c(F)cc(F)cc32)C1`, the IC50 (against Apolipoprotein L1; in assay [1]) was > 1000 nM in each case.
As to `NC(=O)[C@H]1CCN(C(=O)[C@H]2C[C@H](c3c(-c4ccc(F)cc4)[nH]c4c(F)cc(F)cc43)C2)C1`, the IC50 (against Apolipoprotein L1; in assay [1]) was > 1000 nM throughout.
Regarding `O=C1CCC(NC(=O)[C@H]2C[C@H](c3c(-c4ccc(F)cc4)[nH]c4c(F)cc(F)cc43)C2)C(=O)N1` (stereo partly specified), the IC50 against Apolipoprotein L1 was 0.25 nM; in assay [1], 250 nM.
As to `Cn1ncc(CNC(=O)[C@H]2C[C@H](c3c(-c4ccc(F)cc4)[nH]c4c(F)cc(F)cc43)C2)n1`, the values for the IC50 (against Apolipoprotein L1; in assay [1]) were 0.25 nM and < 250 nM, respectively.
The corresponding values for `O=C([C@H]1C[C@H](c2c(-c3ccc(F)cc3)[nH]c3c(F)cc(F)cc32)C1)N(CCO)CCCO` are > 1000 nM and 250 nM.
For `CC(N)(C(=O)NC(=O)[C@H]1C[C@H](c2c(-c3ccc(F)cc3)[nH]c3c(F)cc(F)cc32)C1)C(F)(F)F` (stereo partly specified), the IC50 on Apolipoprotein L1 was > 1000 nM; in assay [1], 250 nM.
The corresponding values for `CC(C)(NC(=O)[C@H]1C[C@H](c2c(-c3ccc(F)cc3)[nH]c3c(F)cc(F)cc32)C1)C(=O)N1CCOCC1` are > 1000 nM and > 1000 nM.
As to `O=C(NCCn1cncn1)[C@H]1C[C@H](c2c(-c3ccc(F)cc3)[nH]c3c(F)cc(F)cc32)C1`, the IC50 (against Apolipoprotein L1; in assay [1]) was < 250 nM throughout.
Turning to `O=C(NC[C@@H](O)C(F)(F)F)[C@H]1C[C@H](c2c(-c3ccc(F)cc3)[nH]c3c(F)cc(F)cc32)C1`, the results for the IC50 (on Apolipoprotein L1; in assay [1]) were 0.25 nM and 250 nM, respectively.
`C[C@H](O)[C@@H](CO)NC(=O)[C@H]1C[C@H](c2c(-c3ccc(F)cc3)[nH]c3c(F)cc(F)cc32)C1`: the IC50 (against Apolipoprotein L1; in assay [1]) was < 250 nM throughout.
As to `O=C(NCCn1cccc1)[C@H]1C[C@H](c2c(-c3ccc(F)cc3)[nH]c3c(F)cc(F)cc32)C1`, the IC50 against Apolipoprotein L1 is > 1000 nM; in assay [1] it was 250 nM.
Regarding `O=C([C@H]1C[C@H](c2c(-c3ccc(F)cc3)[nH]c3c(F)cc(F)cc32)C1)N1CCCC1CCO` (stereo partly specified), the values for the IC50 (on Apolipoprotein L1; in assay [1]) were > 1000 nM and 250 nM, respectively.
On to `Cn1cnc(CNC(=O)[C@H]2C[C@H](c3c(-c4ccc(F)cc4)[nH]c4c(F)cc(F)cc43)C2)c1`, for which the IC50 (against Apolipoprotein L1; in assay [1]) was < 250 nM throughout.
`O=C(OC1CN(C(=O)C2CC(c3c(-c4ccc(F)cc4)[nH]c4c(F)cc(F)cc34)C2)C1)C1CCOCC1` (trans isomer): the IC50 against Apolipoprotein L1 was 0.25 nM; in assay [1], < 250 nM.
In the case of `O=C([C@H]1C[C@H](c2c(-c3ccc(F)cc3)[nH]c3c(F)cc(F)cc32)C1)N1CCC[C@H](O)C1` (mixture of isomers), the IC50 against Apolipoprotein L1 is > 1000 nM; in assay [1] it was 250 nM.
For `O=C(NCc1ccn[nH]1)[C@H]1C[C@H](c2c(-c3ccc(F)cc3)[nH]c3c(F)cc(F)cc32)C1`, the IC50 was found to be 0.25 nM at Apolipoprotein L1 and 250 nM in assay [1].
For `O=C([C@H]1C[C@H](c2c(-c3ccc(F)cc3)[nH]c3c(F)cc(F)cc32)C1)N1CC[C@H]1CO`, in that order: 0.25 nM and < 250 nM.
With `CN(CC(N)=O)C(=O)[C@H]1C[C@H](c2c(-c3ccc(F)cc3)[nH]c3c(F)cc(F)cc32)C1`, the IC50 against Apolipoprotein L1 turned out to be 0.25 nM; in assay [1], 250 nM.
Consider `O=C1CCC(NC(=O)[C@H]2C[C@H](c3c(-c4ccc(F)cc4)[nH]c4c(F)cc(F)cc43)C2)C1` (stereo partly specified), for which the IC50 (against Apolipoprotein L1; in assay [1]) was > 1000 nM in each case.
As for `CS(=O)(=O)NC(=O)[C@H]1C[C@H](c2c(-c3ccc(F)cc3)[nH]c3c(F)cc(F)cc32)C1`, the IC50 (against Apolipoprotein L1; in assay [1]) was > 1000 nM each time.
Regarding `CN(CCO)C(=O)[C@H]1C[C@H](c2c(-c3ccc(F)cc3)[nH]c3c(F)cc(F)cc32)C1`, the IC50 (at Apolipoprotein L1; in assay [1]) was < 250 nM throughout.
As for `O=C(NCc1nnco1)[C@H]1C[C@H](c2c(-c3ccc(F)cc3)[nH]c3c(F)cc(F)cc32)C1`, the IC50 at Apolipoprotein L1 is 0.25 nM; in assay [1], < 250 nM.
In the case of `CCN(C(=O)[C@H]1C[C@H](c2c(-c3ccc(F)cc3)[nH]c3c(F)cc(F)cc32)C1)C(C)CO` (stereo partly specified), the IC50 against Apolipoprotein L1 is > 1000 nM; in assay [1], 250 nM.
For `O=C(NCc1cnoc1)[C@H]1C[C@H](c2c(-c3ccc(F)cc3)[nH]c3c(F)cc(F)cc32)C1`, the IC50 is 0.25 nM against Apolipoprotein L1 and < 250 nM in assay [1].
Turning to `CC(C#N)(CO)NC(=O)[C@H]1C[C@H](c2c(-c3ccc(F)cc3)[nH]c3c(F)cc(F)cc32)C1` (stereo partly specified), the results for the IC50 (against Apolipoprotein L1; in assay [1]) were 0.25 nM and < 250 nM, respectively.
Take `CN(CC1(CO)CC1)C(=O)[C@H]1C[C@H](c2c(-c3ccc(F)cc3)[nH]c3c(F)cc(F)cc32)C1`: the IC50 (on Apolipoprotein L1; in assay [1]) was > 1000 nM in each case.
Regarding `N#CC(CO)NC(=O)[C@H]1C[C@H](c2c(-c3ccc(F)cc3)[nH]c3c(F)cc(F)cc32)C1` (stereo partly specified), the IC50 (at Apolipoprotein L1; in assay [1]) was < 250 nM throughout.
On to `NC(=O)C1(NC(=O)[C@H]2C[C@H](c3c(-c4ccc(F)cc4)[nH]c4c(F)cc(F)cc43)C2)CC1`, for which the values for the IC50 (at Apolipoprotein L1; in assay [1]) were 0.25 nM and 250 nM, respectively.
Consider `O=C([C@H]1C[C@H](c2c(-c3ccc(F)cc3)[nH]c3c(F)cc(F)cc32)C1)N1CCN(CCO)CC1`, for which the IC50 (at Apolipoprotein L1; in assay [1]) was > 1000 nM in each case.
As to `COCC1(NC(=O)[C@H]2C[C@H](c3c(-c4ccc(F)cc4)[nH]c4c(F)cc(F)cc43)C2)CC1`, the IC50 (against Apolipoprotein L1; in assay [1]) was < 250 nM each time.
In the case of `CC(C)N(CCO)C(=O)[C@H]1C[C@H](c2c(-c3ccc(F)cc3)[nH]c3c(F)cc(F)cc32)C1`, the IC50 against Apolipoprotein L1 was > 1000 nM; in assay [1] it was 250 nM.
In the case of `CC1CC(NC(=O)[C@H]2C[C@H](c3c(-c4ccc(F)cc4)[nH]c4c(F)cc(F)cc43)C2)C(=O)N1` (stereo partly specified), the IC50 against Apolipoprotein L1 is > 1000 nM; in assay [1] it was 250 nM.
The corresponding values for `Cn1cc(CNC(=O)[C@H]2C[C@H](c3c(-c4ccc(F)cc4)[nH]c4c(F)cc(F)cc43)C2)cn1` are > 1000 nM and 250 nM.
With `Cc1cc(CNC(=O)[C@H]2C[C@H](c3c(-c4ccc(F)cc4)[nH]c4c(F)cc(F)cc43)C2)on1`, the IC50 is > 1000 nM at Apolipoprotein L1 and 250 nM in assay [1].
For `O=C(N[C@H]1CC[C@H]1O)[C@H]1C[C@H](c2c(-c3ccc(F)cc3)[nH]c3c(F)cc(F)cc32)C1`, the IC50 at Apolipoprotein L1 was 0.25 nM; in assay [1], 250 nM.
The corresponding values for `Cc1nnc(CNC(=O)[C@H]2C[C@H](c3c(-c4ccc(F)cc4)[nH]c4c(F)cc(F)cc43)C2)o1` are 0.25 nM and < 250 nM.
Regarding `O=C([C@H]1C[C@H](c2c(-c3ccc(F)cc3)[nH]c3c(F)cc(F)cc32)C1)N(CCO)C1CC1`, the IC50 on Apolipoprotein L1 is < 250 nM; in assay [1] it was 250 nM.
Take `Cc1cnc(NC(=O)[C@H]2C[C@H](c3c(-c4ccc(F)cc4)[nH]c4c(F)cc(F)cc43)C2)o1`: the IC50 at Apolipoprotein L1 was ≥ 250 nM; in assay [1], < 250 nM.
As for `CC(CO)(CO)NC(=O)[C@H]1C[C@H](c2c(-c3ccc(F)cc3)[nH]c3c(F)cc(F)cc32)C1`, the IC50 (against Apolipoprotein L1; in assay [1]) was < 250 nM throughout.
On to `CN(C)C[C@@H]1CCN(C(=O)[C@H]2C[C@H](c3c(-c4ccc(F)cc4)[nH]c4c(F)cc(F)cc43)C2)C[C@H]1O`, for which the IC50 on Apolipoprotein L1 was > 1000 nM; in assay [1], 250 nM.
The corresponding values for `C[C@H]1CN(C(=O)[C@H]2C[C@H](c3c(-c4ccc(F)cc4)[nH]c4c(F)cc(F)cc43)C2)CC[C@@H]1O` are > 1000 nM and > 1000 nM.
`O=C([C@H]1C[C@H](c2c(-c3ccc(F)cc3)[nH]c3c(F)cc(F)cc32)C1)N1CC(O)C(CO)C1` (stereo partly specified): the IC50 was > 1000 nM against Apolipoprotein L1 and 250 nM in assay [1].
The corresponding values for `O=C(NC1(CO)CC1)[C@H]1C[C@H](c2c(-c3ccc(F)cc3)[nH]c3c(F)cc(F)cc32)C1` are 0.25 nM and < 250 nM.
For the molecule `O=C(NCC1CCOCC1)[C@H]1C[C@H](c2c(-c3ccc(F)cc3)[nH]c3c(F)cc(F)cc32)C1`, the IC50 (against Apolipoprotein L1; in assay [1]) was > 1000 nM throughout.
Consider `NCCCNC(=O)[C@H]1C[C@H](c2c(-c3ccc(F)cc3)[nH]c3c(F)cc(F)cc32)C1`, for which the IC50 was 0.25 nM against Apolipoprotein L1 and < 250 nM in assay [1].
For `O=C1C[C@@H](NC(=O)[C@H]2C[C@H](c3c(-c4ccc(F)cc4)[nH]c4c(F)cc(F)cc43)C2)C(=O)N1`, in that order: < 250 nM and < 250 nM.
Regarding `O=C([C@H]1C[C@H](c2c(-c3ccc(F)cc3)[nH]c3c(F)cc(F)cc32)C1)N1CC[C@H](CO)C1`, the IC50 (on Apolipoprotein L1; in assay [1]) was > 1000 nM in each case.
In the case of `O=C([C@H]1C[C@H](c2c(-c3ccc(F)cc3)[nH]c3c(F)cc(F)cc32)C1)N1CC(O)C(N2CCOCC2)C1` (stereo partly specified), the IC50 (at Apolipoprotein L1; in assay [1]) was > 1000 nM throughout.
On to `CCNC(=O)[C@@H]1CCCN1C(=O)[C@H]1C[C@H](c2c(-c3ccc(F)cc3)[nH]c3c(F)cc(F)cc32)C1`, for which the IC50 (against Apolipoprotein L1; in assay [1]) was > 1000 nM each time.

What is called IC50 is the concentration that gives 50% inhibition.

Values taken from ChEMBL document CHEMBL5052856, “Inhibitors of apol1 and methods of using same” (2021).
